The source made the active and inactive calls. The rule behind the calls is not given here.
Tested on: CCRIS mutagenicity, Ames/micronucleus/aberration tests
Test: CCRIS mutagenicity studies
[1] = Test System: AMES SALMONELLA TYPHIMURIUM, Strain/Indicator: TA98, Metabolic Activation: NONE, Method: PREINCUBATION
[2] = Test System: AMES SALMONELLA TYPHIMURIUM, Strain/Indicator: TA100, Metabolic Activation: NONE, Method: PREINCUBATION
[3] = Test System: AMES SALMONELLA TYPHIMURIUM, Strain/Indicator: TA98, Metabolic Activation: NONE, Method: STANDARD PLATE
[4] = Test System: AMES SALMONELLA TYPHIMURIUM, Strain/Indicator: TA100, Metabolic Activation: NONE, Method: STANDARD PLATE
[5] = Test System: AMES SALMONELLA TYPHIMURIUM, Strain/Indicator: TA1537, Metabolic Activation: NONE, Method: STANDARD PLATE

Oc1c(Cl)cccc1Cl
mutagenic call (Test System: CHINESE HAMSTER V-79, Strain/Indicator: V-79/6-THIOGUANINE, Metabolic Activation: CELL-MEDIATED, Method: STANDARD PLATE): inactive; negative | mutagenic call (Test System: CHINESE HAMSTER V-79, Strain/Indicator: V-79/6-THIOGUANINE, Metabolic Activation: NONE, Method: STANDARD PLATE): inactive; negative | mutagenic call (Test System: CHINESE HAMSTER V-79, Strain/Indicator: V-79/6-THIOGUANINE, Metabolic Activation: PRIMARY RAT HEPATOCYTES, Method: STANDARD PLATE): inactive; negative

COc1cc2c(cc1O)CC1c3c(cc(OC)c(O)c3-2)CC[N+]1(C)C (centres undefined)
mutagenic call (Test System: AMES SALMONELLA TYPHIMURIUM, Strain/Indicator: TA100, Metabolic Activation: RAT, LIVER, S-9, PHENOBARBITAL AND BETA-NAPHTHOFLAVONE, Method: PREINCUBATION): inactive; negative

Nc1ccc(Cc2ccc(N)c(C(=O)O)c2)cc1C(=O)O
mutagenic call [1]: inactive; negative | mutagenic call (Test System: AMES SALMONELLA TYPHIMURIUM, Strain/Indicator: TA98, Metabolic Activation: RAT, LIVER, S-9, PCB, Method: PREINCUBATION): inactive; negative | mutagenic call [2]: inactive; negative | mutagenic call (Test System: AMES SALMONELLA TYPHIMURIUM, Strain/Indicator: TA100, Metabolic Activation: RAT, LIVER, S-9, PCB, Method: PREINCUBATION): inactive; negative

Cc1c([N+](=O)[O-])cc(C)c2c1c1ccccc1n2C
mutagenic call [3]: active; positive | mutagenic call (Test System: AMES SALMONELLA TYPHIMURIUM, Strain/Indicator: TA98, Metabolic Activation: RAT LIVER S-9, AROCLOR 1254, Method: STANDARD PLATE): active; positive | mutagenic call [4]: active; positive | mutagenic call (Test System: AMES SALMONELLA TYPHIMURIUM, Strain/Indicator: TA100, Metabolic Activation: RAT LIVER S-9, AROCLOR 1254, Method: STANDARD PLATE): active; positive

CC(Cl)(Cl)Cl
mutagenic call (End Point: IN VITRO CHROMOSOMAL ABERRATIONS, Test System: CHINESE HAMSTER OVARY CELLS, Metabolic Activation: NONE): active; positive | mutagenic call (End Point: IN VITRO CHROMOSOMAL ABERRATIONS, Test System: CHINESE HAMSTER OVARY CELLS, Metabolic Activation: RAT, LIVER, S-9, AROCLOR 1254): inactive; negative | mutagenic call (End Point: In vitro chromosomal aberrations, Test System: Chinese hamster lung (CHL/IU) cells, Metabolic Activation: Rat, Liver, S9, Phenobarbital and 5,6-benzoflavone): inactive; negative (structural changes and ploidy showed weak response without dose respon | mutagenic call (Test System: AMES SALMONELLA TYPHIMURIUM, Strain/Indicator: TA97, Metabolic Activation: NONE, Method: STANDARD PLATE): active; positive | mutagenic call (Test System: AMES SALMONELLA TYPHIMURIUM, Strain/Indicator: TA97, Metabolic Activation: RAT, LIVER S-9, AROCLOR 1254, Method: STANDARD PLATE): active; positive | mutagenic call [3]: active; positive | mutagenic call (Test System: AMES SALMONELLA TYPHIMURIUM, Strain/Indicator: TA98, Metabolic Activation: RAT, LIVER S-9, AROCLOR 1254, Method: STANDARD PLATE): active; positive | mutagenic call [4]: active; positive | mutagenic call (Test System: AMES SALMONELLA TYPHIMURIUM, Strain/Indicator: TA100, Metabolic Activation: NONE, Method: VAPOR CHAMBER): active; positive | mutagenic call (Test System: AMES SALMONELLA TYPHIMURIUM, Strain/Indicator: TA100, Metabolic Activation: RAT, LIVER S-9, AROCLOR 1254, Method: STANDARD PLATE): inactive; negative | mutagenic call (Test System: AMES SALMONELLA TYPHIMURIUM, Strain/Indicator: TA100, Metabolic Activation: RAT, LIVER, S-9, AROCLOR 1254, Method: DESICCATOR): active; positive | mutagenic call (Test System: AMES SALMONELLA TYPHIMURIUM, Strain/Indicator: TA100, Metabolic Activation: RAT, LIVER, S-9, AROCLOR 1254, Method: VAPOR CHAMBER): active; positive | mutagenic call (Test System: AMES SALMONELLA TYPHIMURIUM, Strain/Indicator: TA104, Metabolic Activation: NONE, Method: STANDARD PLATE): inactive; negative | mutagenic call (Test System: AMES SALMONELLA TYPHIMURIUM, Strain/Indicator: TA104, Metabolic Activation: RAT, LIVER, S-9, AROCLOR 1254, Method: STANDARD PLATE): active; positive | mutagenic call (Test System: AMES SALMONELLA TYPHIMURIUM, Strain/Indicator: TA1535, Metabolic Activation: NONE, Method: VAPOR CHAMBER): active; positive | mutagenic call (Test System: AMES SALMONELLA TYPHIMURIUM, Strain/Indicator: TA1535, Metabolic Activation: RAT, LIVER, S-9, AROCLOR 1254, Method: VAPOR CHAMBER): active; positive

ClC(COCC(Cl)C(Cl)(Cl)Cl)C(Cl)(Cl)Cl (centres undefined)
mutagenic call (Test System: AMES SALMONELLA TYPHIMURIUM, Strain/Indicator: TA98, Metabolic Activation: NONE, Method: MICROSUSPENSION): inactive; negative | mutagenic call (Test System: AMES SALMONELLA TYPHIMURIUM, Strain/Indicator: TA98, Metabolic Activation: S-9, Method: MICROSUSPENSION): inactive; negative | mutagenic call (Test System: AMES SALMONELLA TYPHIMURIUM, Strain/Indicator: TA100, Metabolic Activation: NONE, Method: MICROSUSPENSION): active; positive | mutagenic call (Test System: AMES SALMONELLA TYPHIMURIUM, Strain/Indicator: TA100, Metabolic Activation: S-9, Method: MICROSUSPENSION): inactive; negative

CC1(C(=O)NCc2ccccc2)CO1 (centres undefined)
mutagenic call (Test System: AMES SALMONELLA TYPHIMURIUM, Strain/Indicator: TA100, Metabolic Activation: MOUSE, LIVER, S-9, AROCLOR 1254, Method: STANDARD PLATE): active; positive | mutagenic call [4]: active; positive

O=C(C(Cl)Cl)C(Cl)Cl
mutagenic call [3]: active; positive | mutagenic call [4]: active; positive

c1ccc2c(c1)-c1cc3ccccc3c3cc4ccccc4c-2c13
mutagenic call (Test System: AMES SALMONELLA TYPHIMURIUM, Strain/Indicator: TA100, Metabolic Activation: MOUSE, LIVER, S-9, 3-METHYLCHOLANTHRENE, Method: STANDARD PLATE): active; positive | mutagenic call (Test System: AMES SALMONELLA TYPHIMURIUM, Strain/Indicator: TA100, Metabolic Activation: RAT, LIVER, S-9, 3-METHYLCHOLANTHRENE, Method: STANDARD PLATE): active; positive | mutagenic call (Test System: HUMAN H1A1V2 CELLS, Strain/Indicator: TK LOCUS, Metabolic Activation: NONE, Method: SUSPENSION/PLATE): active; positive

CCC(C)COC(=O)/C=C/c1ccc(N=Cc2ccc(OC)cc2)cc1 (centres undefined)
mutagenic call (Test System: AMES SALMONELLA TYPHIMURIUM, Strain/Indicator: TA98, Metabolic Activation: HAMSTER, LIVER, S-9, AROCLOR 1254 (30%), Method: PREINCUBATION): inactive; negative | mutagenic call [1]: inactive; negative | mutagenic call (Test System: AMES SALMONELLA TYPHIMURIUM, Strain/Indicator: TA98, Metabolic Activation: RAT, LIVER, S-9, AROCLOR 1254 (30%), Method: PREINCUBATION): active; positive | mutagenic call (Test System: AMES SALMONELLA TYPHIMURIUM, Strain/Indicator: TA100, Metabolic Activation: HAMSTER, LIVER, S-9, AROCLOR 1254 (30%), Method: PREINCUBATION): active; positive | mutagenic call [2]: inactive; negative | mutagenic call (Test System: AMES SALMONELLA TYPHIMURIUM, Strain/Indicator: TA100, Metabolic Activation: RAT, LIVER, S-9, AROCLOR 1254 (30%), Method: PREINCUBATION): active; positive

c1ccc([C@@H]2CO2)cc1
mutagenic call (Test System: AMES SALMONELLA TYPHIMURIUM, Strain/Indicator: TA100, Metabolic Activation: NONE): active; positive | mutagenic call [4]: active; positive

CC(S)C(=O)NCC(=O)O (centres undefined)
mutagenic call [3]: inactive; negative | mutagenic call (Test System: AMES SALMONELLA TYPHIMURIUM, Strain/Indicator: TA98, Metabolic Activation: RAT, LIVER, S-9, AROCLOR 1254, Method: STANDARD PLATE): inactive; negative | mutagenic call [4]: inactive; negative | mutagenic call (Test System: AMES SALMONELLA TYPHIMURIUM, Strain/Indicator: TA100, Metabolic Activation: RAT, LIVER, S-9, AROCLOR 1254, Method: STANDARD PLATE): inactive; negative | mutagenic call (Test System: AMES SALMONELLA TYPHIMURIUM, Strain/Indicator: TA1535, Metabolic Activation: NONE, Method: STANDARD PLATE): inactive; negative | mutagenic call (Test System: AMES SALMONELLA TYPHIMURIUM, Strain/Indicator: TA1535, Metabolic Activation: RAT, LIVER, S-9, AROCLOR 1254, Method: STANDARD PLATE): inactive; negative | mutagenic call [5]: inactive; negative | mutagenic call (Test System: AMES SALMONELLA TYPHIMURIUM, Strain/Indicator: TA1537, Metabolic Activation: RAT, LIVER, S-9, AROCLOR 1254, Method: STANDARD PLATE): inactive; negative | mutagenic call (Test System: AMES SALMONELLA TYPHIMURIUM, Strain/Indicator: TA1538, Metabolic Activation: NONE, Method: STANDARD PLATE): inactive; negative | mutagenic call (Test System: AMES SALMONELLA TYPHIMURIUM, Strain/Indicator: TA1538, Metabolic Activation: RAT, LIVER, S-9, AROCLOR 1254, Method: STANDARD PLATE): inactive; negative

O=C(O)c1ccc(O)c2c1C(=O)c1cc(O)cc(O)c1C2=O
mutagenic call [5]: inactive; negative | mutagenic call (Test System: AMES SALMONELLA TYPHIMURIUM, Strain/Indicator: TA1537, Metabolic Activation: RAT, LIVER, S-9, PCB, Method: STANDARD PLATE): inactive; negative
